The values below come from publication PMC6019379, “RecA-like domain 2 of DNA-dependent ATPase A domain, a SWI2/SNF2 protein, mediates conformational integrity and ATP hydrolysis” (Bioscience Reports, 2018).

pKd: −log10 of the molar value.

Common to all, as to assay type: binding
In assay [1] the target is T1, ADAAD (Active DNA-dependent ATPase A domain) (Bos taurus, UniProt Q9TTA5).
T1 construct: gene SMARCAL1; ATPase domain fragment of bovine SMARCAL1 (RecA-like domains 1 and 2), plasmid pCP101 (pET-14b, NdeI/XhoI), E. coli BL21(DE3), Ni-NTA then DEAE-sepharose; tag removal not mentioned
The experiment in a line: intrinsic tryptophan fluorescence titration (ex […] nm, em […] nm). The following applies: representative spectra only.

Assay [2] deals with T2, ADAAD (Active DNA-dependent ATPase A domain) (Bos taurus, UniProt Q9TTA5, R815K).
T2 construct: gene SMARCAL1; ATPase domain fragment of bovine SMARCAL1 (RecA-like domains 1 and 2), plasmid pCP101 (pET-14b, NdeI/XhoI), E. coli BL21(DE3), Ni-NTA then DEAE-sepharose; tag removal not mentioned
The assay can be described thus: intrinsic tryptophan fluorescence titration (ex […] nm, em […] nm), one-site fit.

Assay [3] addresses T3, ADAAD (Active DNA-dependent ATPase A domain) (Bos taurus, UniProt Q9TTA5, S778A).
T3 construct: gene SMARCAL1; ATPase domain fragment of bovine SMARCAL1 (RecA-like domains 1 and 2), plasmid pCP101 (pET-14b, NdeI/XhoI), E. coli BL21(DE3), Ni-NTA then DEAE-sepharose; tag removal not mentioned
The assay is described as above.

In assay [4] the target is T4, ADAAD (Active DNA-dependent ATPase A domain) (Bos taurus, UniProt Q9TTA5, F727W).
T4 construct: gene SMARCAL1; ATPase domain fragment of bovine SMARCAL1 (RecA-like domains 1 and 2), plasmid pCP101 (pET-14b, NdeI/XhoI), E. coli BL21(DE3), Ni-NTA then DEAE-sepharose; tag removal not mentioned
The description is as above.

The target in assay [5] is T5, ADAAD (Active DNA-dependent ATPase A domain) (Bos taurus, UniProt Q9TTA5, D811H).
T5 construct: gene SMARCAL1; ATPase domain fragment of bovine SMARCAL1 (RecA-like domains 1 and 2), plasmid pCP101 (pET-14b, NdeI/XhoI), E. coli BL21(DE3), Ni-NTA then DEAE-sepharose; tag removal not mentioned
The assay is described as above.

Assay [6] has as its target T6, ADAAD (Active DNA-dependent ATPase A domain) (Bos taurus, UniProt Q9TTA5, T780A).
T6 construct: gene SMARCAL1; ATPase domain fragment of bovine SMARCAL1 (RecA-like domains 1 and 2), plasmid pCP101 (pET-14b, NdeI/XhoI), E. coli BL21(DE3), Ni-NTA then DEAE-sepharose; tag removal not mentioned
The description is as above.

Assay [7] concerns the target T7, ADAAD (Active DNA-dependent ATPase A domain) (Bos taurus, UniProt Q9TTA5, F727A/R812A).
T7 construct: gene SMARCAL1; ATPase domain fragment of bovine SMARCAL1 (RecA-like domains 1 and 2), plasmid pCP101 (pET-14b, NdeI/XhoI), E. coli BL21(DE3), Ni-NTA then DEAE-sepharose; tag removal not mentioned
The description is as above.

The target of assay [8] is T8, ADAAD (Active DNA-dependent ATPase A domain) (Bos taurus, UniProt Q9TTA5, D811H/H549D).
T8 construct: gene SMARCAL1; ATPase domain fragment of bovine SMARCAL1 (RecA-like domains 1 and 2), plasmid pCP101 (pET-14b, NdeI/XhoI), E. coli BL21(DE3), Ni-NTA then DEAE-sepharose; tag removal not mentioned
The description is as above.

The target of assay [9] is T9, ADAAD (Active DNA-dependent ATPase A domain) (Bos taurus, UniProt Q9TTA5, R812A).
T9 construct: gene SMARCAL1; ATPase domain fragment of bovine SMARCAL1 (RecA-like domains 1 and 2), plasmid pCP101 (pET-14b, NdeI/XhoI), E. coli BL21(DE3), Ni-NTA then DEAE-sepharose; tag removal not mentioned
Described as above.

Assay [10] deals with T10, ADAAD (Active DNA-dependent ATPase A domain) (Bos taurus, UniProt Q9TTA5, R815H).
T10 construct: gene SMARCAL1; ATPase domain fragment of bovine SMARCAL1 (RecA-like domains 1 and 2), plasmid pCP101 (pET-14b, NdeI/XhoI), E. coli BL21(DE3), Ni-NTA then DEAE-sepharose; tag removal not mentioned
The assay is described as above.

Assay [11] deals with T11, ADAAD (Active DNA-dependent ATPase A domain) (Bos taurus, UniProt Q9TTA5, F727A).
T11 construct: gene SMARCAL1; ATPase domain fragment of bovine SMARCAL1 (RecA-like domains 1 and 2), plasmid pCP101 (pET-14b, NdeI/XhoI), E. coli BL21(DE3), Ni-NTA then DEAE-sepharose; tag removal not mentioned
Described as above.

Assay [12] has as its target T12, ADAAD (Active DNA-dependent ATPase A domain) (Bos taurus, UniProt Q9TTA5, R815A).
T12 construct: gene SMARCAL1; ATPase domain fragment of bovine SMARCAL1 (RecA-like domains 1 and 2), plasmid pCP101 (pET-14b, NdeI/XhoI), E. coli BL21(DE3), Ni-NTA then DEAE-sepharose; tag removal not mentioned
Described as above.

Assay [13] concerns the target T13, ADAAD (Active DNA-dependent ATPase A domain) (Bos taurus, UniProt Q9TTA5, H814A).
T13 construct: gene SMARCAL1; ATPase domain fragment of bovine SMARCAL1 (RecA-like domains 1 and 2), plasmid pCP101 (pET-14b, NdeI/XhoI), E. coli BL21(DE3), Ni-NTA then DEAE-sepharose; tag removal not mentioned
Described as above.

T5 sequence (Q9TTA5 221-940 D811H limits assumed): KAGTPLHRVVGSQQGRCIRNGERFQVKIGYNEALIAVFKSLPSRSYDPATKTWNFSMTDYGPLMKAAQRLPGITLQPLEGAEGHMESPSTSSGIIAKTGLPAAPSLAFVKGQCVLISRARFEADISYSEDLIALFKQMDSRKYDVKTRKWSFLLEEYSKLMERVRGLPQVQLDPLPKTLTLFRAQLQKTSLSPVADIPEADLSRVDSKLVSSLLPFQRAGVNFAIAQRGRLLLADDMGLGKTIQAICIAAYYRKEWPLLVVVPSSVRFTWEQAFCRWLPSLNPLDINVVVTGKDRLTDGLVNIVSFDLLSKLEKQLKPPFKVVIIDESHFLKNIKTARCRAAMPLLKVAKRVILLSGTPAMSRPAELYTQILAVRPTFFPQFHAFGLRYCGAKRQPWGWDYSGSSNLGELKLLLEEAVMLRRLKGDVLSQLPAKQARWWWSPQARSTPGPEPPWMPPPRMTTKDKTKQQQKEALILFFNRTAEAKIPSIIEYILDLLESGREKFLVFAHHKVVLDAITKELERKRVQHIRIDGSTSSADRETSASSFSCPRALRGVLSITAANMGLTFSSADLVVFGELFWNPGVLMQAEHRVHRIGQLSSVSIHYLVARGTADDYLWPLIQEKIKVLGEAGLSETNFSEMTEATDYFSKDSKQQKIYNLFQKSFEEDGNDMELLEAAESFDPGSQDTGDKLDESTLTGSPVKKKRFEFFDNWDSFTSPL
T1 sequence (Q9TTA5 221-940 limits assumed): as the sequence (Q9TTA5 221-940 D811H limits assumed) above, with H591D counted along it
T3 sequence (Q9TTA5 221-940 S778A limits assumed): as the sequence (Q9TTA5 221-940 D811H limits assumed) above, with S558A, H591D counted along it
T10 sequence (Q9TTA5 221-940 R815H limits assumed): as the sequence (Q9TTA5 221-940 D811H limits assumed) above, with H591D, R595H counted along it
T4 sequence (Q9TTA5 221-940 F727W limits assumed): as the sequence (Q9TTA5 221-940 D811H limits assumed) above, with F507W, H591D counted along it
T8 sequence (Q9TTA5 221-940 H549D/D811H limits assumed): as the sequence (Q9TTA5 221-940 D811H limits assumed) above, with H329D counted along it
T2 sequence (Q9TTA5 221-940 R815K limits assumed): as the sequence (Q9TTA5 221-940 D811H limits assumed) above, with H591D, R595K counted along it
T6 sequence (Q9TTA5 221-940 T780A limits assumed): as the sequence (Q9TTA5 221-940 D811H limits assumed) above, with T560A, H591D counted along it
T9 sequence (Q9TTA5 221-940 R812A limits assumed): as the sequence (Q9TTA5 221-940 D811H limits assumed) above, with H591D, R592A counted along it
T7 sequence (Q9TTA5 221-940 F727A/R812A limits assumed): as the sequence (Q9TTA5 221-940 D811H limits assumed) above, with F507A, H591D, R592A counted along it
T13 sequence (Q9TTA5 221-940 H814A limits assumed): as the sequence (Q9TTA5 221-940 D811H limits assumed) above, with H591D, H594A counted along it
T12 sequence (Q9TTA5 221-940 R815A limits assumed): as the sequence (Q9TTA5 221-940 D811H limits assumed) above, with H591D, R595A counted along it
T11 sequence (Q9TTA5 221-940 F727A limits assumed): as the sequence (Q9TTA5 221-940 D811H limits assumed) above, with F507A, H591D counted along it

Take `Nc1ncnc2c1ncn2[C@@H]1O[C@H](COP(=O)(O)OP(=O)(O)OP(=O)(O)O)[C@@H](O)[C@H]1O` [ATP]: the “intrinsic tryptophan fluorescence titration (ex 295 nm, em 340 nm)” value in assay [1] is “Representative fluorescence spectra of ADAAD titrated with (A). ATP; (B) DNA”. Further, the pKd in assay [2] is 5.92; in assay [3] it was 5.72; in [4], 6.00; in [5] it was 5.49; in assay [6] it was 6.00; in assay [7] it was 5.77. The pKd in assay [8] was 5.55; in [9], 5.80; in assay [10] it was 5.89; in assay [11], 5.80; in assay [12], 5.92; in [13] it was 5.80.
